We go through twelve compounds from ChEMBL document CHEMBL1201862, “PubChem BioAssay data set” (2004).

Some test systems named below: HT-29; CAKI-1; RPMI-8226; U-251; NCI-H23; SNB-75; K562; A498; A549; CCRF-CEM; UACC-62; HCT-15; KM12; IGROV-1; HOP-62; SF-539; MOLT-4.
What all share (experiment): NCI tumour cell line growth inhibition, 48 h

The structures appear in SMILES notation.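 Following 48 hours of exposure in 96-well plates, responses at five concentrations were used to interpolate endpoints linearly. Here, GI50 denotes the concentration required for 50% inhibition of growth.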 Calls of active or inactive are those of the source. No stated cut-off is given here; in the data, active = GI50 up to about 1.1 µM and inactive = higher.

`COc1ccc(/C(=N\NC(=S)NN)C(c2ccc(OC)cc2)C2C(=O)Oc3ccccc32)cc1` (configuration not stated): the GI50 in the test with HT-29, in the test with CAKI-1, in the test with RPMI-8226, with U-251, in the test on NCI-H23 and in the test on SNB-75 was > 10 µM (inactive) in each case. For the same compound, the GI50 in the test on K562 was > 10 µM (inactive); in the test with A498, > 10 µM (inactive); in the test on A549, > 10 µM (inactive); in the test with CCRF-CEM, 64.9 µM (inactive); with UACC-62, > 10 µM (inactive); with HCT-15, greater than 10 µM. The GI50 with KM12, in the test on IGROV-1, with HOP-62 and in the test on SF-539 was > 10 µM (inactive) throughout.

For `Cc1c(C(=O)CSc2nc3ccccc3c(=O)n2-c2ccccc2)c(=O)n(-c2ccccc2)n1C`, the GI50 in the test with HT-29 was > 100 µM (inactive); with CAKI-1, 0.185 µM (active); with MOLT-4, > 100 µM (inactive); with RPMI-8226, > 100 µM (inactive); in the test with U-251, 22.4 µM (inactive); in the test with NCI-H23, 62.4 µM (inactive). The GI50 in the test on SNB-75 was 60.8 µM (inactive); in the test on A498 it was 42.4 µM (inactive); in the test on A549, 64.9 µM (inactive); in the test on CCRF-CEM, > 100 µM (inactive); in the test on HCT-15 it was greater than 100 µM; in the test on KM12, 54.7 µM (inactive). Besides, the values for the GI50 with IGROV-1, in the test with HOP-62 and with SF-539 were > 100 µM (inactive), 31.4 µM (inactive) and 63.2 µM (inactive), respectively.

On to `NNC(=O)CNC(=O)c1ccc(Cl)cc1Cl`, for which the GI50 was 80.4 µM (inactive) in the test on HT-29; > 100 µM (inactive) in the test with CAKI-1; > 100 µM (inactive) in the test with MOLT-4; > 100 µM (inactive) with RPMI-8226; 39.6 µM (inactive) in the test with U-251; > 100 µM (inactive) in the test on NCI-H23. For the same compound, the GI50 in the test on SNB-75, with K562, in the test with A498, with A549, in the test on CCRF-CEM and with UACC-62 was > 100 µM (inactive) throughout. The GI50 in the test with HCT-15 was 32.7 µM; in the test on KM12, > 100 µM (inactive); with IGROV-1, > 100 µM (inactive); in the test on HOP-62, > 100 µM (inactive); in the test on SF-539, > 100 µM (inactive).

Take `Nc1ncnc(NC2C=C(CO)C(O)C2O)c1[N+](=O)[O-]` (configuration not stated): the GI50 in the test on HT-29, with CAKI-1, with MOLT-4, with RPMI-8226, in the test on U-251 and with NCI-H23 was > 100 µM (inactive) throughout. Further, the GI50 in the test with SNB-75, in the test on K562, with A498, in the test with A549, in the test with CCRF-CEM and with UACC-62 was > 100 µM (inactive) each time. In addition, the GI50 is 42.9 µM in the test on HCT-15; > 100 µM (inactive) in the test with KM12; > 100 µM (inactive) in the test with IGROV-1; > 100 µM (inactive) in the test on HOP-62; > 100 µM (inactive) with SF-539.

`COC1CCC(OC)C(C2(C3CC(OC)CCC3OC)OC(=O)c3ccccc32)C1` (configuration not stated): the GI50 in the test with HT-29 is 33.8 µM (inactive); with CAKI-1, > 100 µM (inactive); in the test with MOLT-4, 14.6 µM (inactive); in the test with RPMI-8226, 19.8 µM (inactive); in the test with U-251, 93.8 µM (inactive); with NCI-H23 it was 80.7 µM (inactive). The GI50 in the test with SNB-75 was > 100 µM (inactive); in the test on K562, 22.2 µM (inactive); in the test on A498, > 100 µM (inactive); with A549, > 100 µM (inactive); in the test with UACC-62, 94.8 µM (inactive); in the test with HCT-15 it was 37 µM. In addition, the GI50 in the test on KM12 is 38.9 µM (inactive); in the test on IGROV-1, 68.4 µM (inactive); in the test with HOP-62, > 100 µM (inactive); with SF-539, > 100 µM (inactive).

With `CC(=O)OCCOCNC(=S)N/N=C(\C)c1cnccn1`, the GI50 with HT-29 was 41 µM (inactive); with MOLT-4 it was 14.1 µM (inactive); in the test on RPMI-8226, 42.4 µM (inactive); in the test on U-251 it was 29.6 µM (inactive); in the test on NCI-H23 it was 58.2 µM (inactive); with SNB-75, 33.5 µM (inactive). Further, the GI50 is 30.5 µM (inactive) in the test on K562; 58.6 µM (inactive) with A498; 24.5 µM (inactive) with A549; 13 µM (inactive) in the test with CCRF-CEM; 13.5 µM (inactive) in the test on UACC-62; 22.1 µM in the test with HCT-15. Besides, the GI50 with KM12 is 43.3 µM (inactive); in the test on IGROV-1, 26.9 µM (inactive); in the test on HOP-62 it was 27.4 µM (inactive); in the test with SF-539, 29.8 µM (inactive).

As to `COC1=CC(=O)C2C(C1=O)[C@@H]1c3ccccc3C[C@H]21` (some centres not stated), the GI50 in the test with HT-29, in the test on CAKI-1, in the test on MOLT-4, with RPMI-8226, in the test on U-251 and in the test on NCI-H23 was > 100 µM (inactive) in each case. For the same compound, the GI50 is 89.9 µM (inactive) in the test with SNB-75; > 100 µM (inactive) in the test with K562; > 100 µM (inactive) in the test on A498; > 100 µM (inactive) with A549; > 100 µM (inactive) with CCRF-CEM; > 100 µM (inactive) in the test on UACC-62. In addition, the GI50 was greater than 100 µM in the test with HCT-15; > 100 µM (inactive) with KM12; > 100 µM (inactive) with IGROV-1; > 100 µM (inactive) in the test with HOP-62; > 100 µM (inactive) in the test on SF-539.

For `COC12CCC(C(C(=O)c3ccccc3)=C1C(=O)c1ccccc1)C(O)C2` (configuration not stated), the GI50 with HT-29, in the test with CAKI-1, in the test on MOLT-4, in the test on RPMI-8226, in the test on NCI-H23 and in the test on SNB-75 was > 100 µM (inactive) each time. Besides, the GI50 in the test with K562 is > 100 µM (inactive); in the test with A498 it was 67.3 µM (inactive); in the test on A549 it was > 100 µM (inactive); in the test with CCRF-CEM, > 100 µM (inactive); with UACC-62 it was > 100 µM (inactive); in the test on HCT-15 it was greater than 100 µM. Besides, the GI50 in the test on KM12, with IGROV-1, in the test with HOP-62 and in the test on SF-539 was > 100 µM (inactive) in each case.

For `c1ccc2c(C3NCCc4nc[nH]c43)cccc2c1` (configuration not stated), the GI50 in the test with HT-29, with CAKI-1, in the test with MOLT-4, with RPMI-8226, in the test on U-251 and in the test with NCI-H23 was > 100 µM (inactive) each time. For the same compound, the GI50 in the test on SNB-75, in the test with K562, in the test with A498, in the test on A549, in the test on CCRF-CEM and in the test on UACC-62 was > 100 µM (inactive) in each case. In addition, the GI50 is greater than 100 µM in the test with HCT-15; > 100 µM (inactive) in the test on KM12; > 100 µM (inactive) in the test on IGROV-1; > 100 µM (inactive) in the test on HOP-62; > 100 µM (inactive) in the test on SF-539.

With `CC(C)C(/N=C1\CC2CCC1(C(=O)Nc1ccccc1O)C2(C)C)c1ccccc1` (configuration not stated), the GI50 with HT-29 was 9.75 µM (inactive); with CAKI-1 it was > 10 µM (inactive); in the test on MOLT-4 it was 3.18 µM (inactive); in the test on RPMI-8226 it was 5.11 µM (inactive); in the test with U-251 it was > 10 µM (inactive); in the test on NCI-H23 it was 7.67 µM (inactive). Also, the GI50 in the test with SNB-75, with K562, with A498, in the test with A549, in the test with CCRF-CEM and in the test on UACC-62 was > 10 µM (inactive) throughout. For the same compound, the GI50 with HCT-15 is greater than 10 µM; in the test with KM12, > 10 µM (inactive); in the test on IGROV-1 it was > 10 µM (inactive); with HOP-62, > 10 µM (inactive); with SF-539, > 10 µM (inactive).

`C=CCCCCn1c2ccccc2c2c(C)c3c[n+](C)ccc3c(C)c21`: the GI50 in the test on HT-29 is 0.271 µM (active); in the test with CAKI-1, 14.3 µM (inactive); in the test on MOLT-4, 0.298 µM (active); with RPMI-8226 it was 0.212 µM (active); in the test with U-251, 0.197 µM (active); in the test on NCI-H23 it was 0.382 µM (active). The GI50 in the test on SNB-75 was 0.713 µM (active); with K562, 0.281 µM (active); with A498, 1.44 µM (inactive); with A549, 0.3 µM (active); in the test on CCRF-CEM, 0.335 µM (active); in the test on UACC-62, 0.336 µM (active). The GI50 in the test on KM12 is 0.392 µM (active); in the test on IGROV-1, 0.252 µM (active); in the test with HOP-62 it was 0.643 µM (active); with SF-539 it was 0.564 µM (active).

Regarding `C[N+](C)(C)CCC(=O)CC[N+](C)(C)C`, the GI50 in the test on HT-29 was 13.5 µM (inactive); with CAKI-1, 15.7 µM (inactive); in the test on MOLT-4, 4.14 µM (inactive); in the test on RPMI-8226, 4.68 µM (inactive); in the test on U-251, > 100 µM (inactive); with NCI-H23, 24.5 µM (inactive). Moreover, the GI50 in the test on SNB-75 was 19.9 µM (inactive); with K562 it was 6.68 µM (inactive); with A498, 70.5 µM (inactive); in the test on A549 it was > 100 µM (inactive); with CCRF-CEM, 2.49 µM (inactive); in the test on UACC-62, 21.5 µM (inactive). Moreover, the GI50 is 19.2 µM in the test with HCT-15; 20 µM (inactive) in the test on KM12; 87.3 µM (inactive) in the test with IGROV-1; > 100 µM (inactive) in the test with HOP-62; 19.8 µM (inactive) with SF-539.
